Measurements published in patent US4714705A, “4-nitrogen substituted isoquinolinol compounds having cardiotonic, phosphodiesterase fraction III inhibiting properties and/or renal vasodilating properties” (Ortho Pharmaceutical Corporation, priority 1986, dated 1987).
Where two headings read alike, the source gives them in different places.

System: adult mongrel dogs
Assay: Renal vasodilating activity in anesthetized dogs
Format: in vivo, dog (adult mongrel)
Settings: Canis lupus familiaris; for change in vivo at 0.2 mg/kg: 0.2 mg/kg intravenous
Method: Goldberg et al, J. Pharmacol. Exp. Ther., 163, 188 (1968), performed an investigation of the structural requirements for dopamine-like renal vasodilation of phenethylamines and apmorphine. The following procedure is a variation of the assay described in that report.
Adult mongrel dogs were anesthetized and surgically prepared for electromagnetic measurement of renal artery blood flow. A carotid artery was cannulated for measuring arterial blood pressure, and drugs were administered intravenously or intraarterially (via the renal artery). Heart rate was monitored with a cardiotachometer. Renal vascular resistance was calculated as the ratio of mean arterial blood pressure/renal artery blood flow. Dopamine was infused intravenously at […] for ten minutes (at an infusion rate of about 1 ml/min) to determine responsiveness of each dog to renal dopamine receptor stimulation. Cumulative dose-response data were obtained by infusing a compound of this invention at progressively increasing (usually three-fold) infusion rates, esch dose being infused for five minutes. The maximum percent increase from pre-drug control in renal artery blood flow (or a decrease in renal vascular resistance) was determined for each infusion dose.
RBF values are percent increase in renal blood flow. RVR values are percent increase in renal vascular resistance. MABP and HR are increases in mean arterial blood pressure and heart rate, respectively, relative to controls.

[1] = 6.2 mg/kg intravenous, relative to controls, read-out: HR, percent change in heart rate
[2] = 6.2 mg/kg intravenous, relative to controls, read-out: MABP, mean arterial blood pressure
[3] = 6.2 mg/kg intravenous, relative to controls, read-out: RBF, renal blood flow
[4] = 6.2 mg/kg intravenous, relative to controls, read-out: RVR, renal vascular resistance
[5] = 1.2 mg/kg intravenous, relative to controls, read-out: RBF, renal blood flow
[6] = 1.2 mg/kg intravenous, relative to controls, read-out: RVR, renal vascular resistance
[7] = 1.2 mg/kg intravenous, relative to controls, read-out: HR, percent change in heart rate
[8] = 1.2 mg/kg intravenous, relative to controls, read-out: MABP, mean arterial blood pressure
[9] = iv, read-out: HR, percent change in heart rate

Row | Structure (SMILES) | change in vivo at 6.2 mg/kg [1] [%] | change in vivo at 6.2 mg/kg [2] [%] | change in vivo at 6.2 mg/kg [3] [%] | change in vivo at 6.2 mg/kg [4] [%] | change in vivo at 1.2 mg/kg [5] [%] | change in vivo at 1.2 mg/kg [6] [%] | change in vivo at 1.2 mg/kg [7] [%] | change in vivo at 1.2 mg/kg [8] [%] | further results
1 | COC(=O)Nc1c(O)nc(C)c2cc(OC)c(OC)cc12 [BBR] | 27 | -7 | 30 | -29 | – | – | – | – | –
2 | CCOc1cc2c(NC(=O)Nc3ccc(OC)cc3)c(O)nc(C)c2cc1OC [BAV] | 9 | -5 | 35 | -29 | – | – | – | – | –
3 | CCOc1cc2c(C)nc(O)c(NC(=O)NCc3ccccc3)c2cc1OC [BAJ] | -6 | -11 | 54 | -32 | – | – | – | – | –
4 | CCOc1cc2c(C)nc(O)c(NC(=O)Nc3ccc(C(F)(F)F)cc3)c2cc1OC [BV] | 26 | -6 | 25 | -24 | – | – | – | – | –
5 | CCCCNC(=O)Nc1c(O)nc(C)c2cc(OC)c(OC)cc12 [Compound BR, 4-(N'-n-Butylureido)-3-hydroxy-6,7-dimethoxy-1-methylisoquinoline Hemihydrate] | -9 | -1 | 128 | -56 | – | – | – | – | –
6 | COc1cc2c(C)nc(O)c(NC(=O)Nc3ccc([N+](=O)[O-])cc3)c2cc1OC [BAR] | – | – | – | – | 9 | -8 | – | – | –
7 | COc1cc2c(C)nc(O)c(NC(N)=O)c2cc1OC [Compound BM, 6,7-Dimethoxy-3-hydroxy-1-methyl-4-ureidoisoquinoline] | -10 | 18 | 59 | -23 | – | – | – | – | –
8 | COc1cc2c(C)nc(O)c(NC(=O)NC(C)(C)C)c2cc1OC [BAU] | 4 | -3 | 12 | -13 | – | – | – | – | –
9 | COc1ccc(NC(=O)Nc2c(O)nc(C)c3cc(OC)c(OC)cc23)cc1 [BP, 4-(N'-para-methoxyphenylureido)-3-hydroxy-6,7-dimethoxy-1-methylisoquinoline] | 2 | 12 | 68 | -32 | – | – | – | – | –
10 | CCCCOC(=O)Nc1c(O)nc(C)c2cc(OC)c(OC)cc12 [Compound BBP, 4-[N-(n-Butoxycarbonyl)amino]-3-hydroxy-6,7-dimethoxy-1-methylisoquinoline] | – | 1 | 77 | -42 | – | – | – | – | –
11 | CCOc1cc2c(C)nc(O)c(NC(N)=O)c2cc1OC [BS] | 4 | – | 33 | -24 | – | – | – | – | –
12 | COc1cc2c(C)nc(O)c(NC(=O)Nc3ccc(C#N)cc3)c2cc1OC [BBX] | – | – | – | – | 12 | -20 | -11 | -11 | –
13 | CNC(=O)Nc1c(O)nc(C)c2cc(OC)c(OC)cc12 [BBY] | – | – | – | – | 21 | -12 | -4 | 6 | –
14 | CCNC(=O)Nc1c(O)nc(C)c2cc(OC)c(OC)cc12 [BCD] | – | – | – | – | 28 | -22 | – | – | –
15 | COc1cc2c(C)nc(O)c(NC(=O)Nc3ccc([S+](C)[O-])cc3)c2cc1OC (stereo not drawn) [Compound BCB, Hydrate] | – | – | – | – | 12 | -6 | -1 | 5 | –
16 | COc1ccc(NC(=O)Nc2c(O)nc(C)c3cc(OC)ccc23)cc1 [BBS] | – | – | – | – | 17 | -4 | 5 | 2 | –

Row | Structure (SMILES) | change in vivo at 6.2 mg/kg [1] [%] | change in vivo at 6.2 mg/kg [2] [%] | change in vivo at 6.2 mg/kg [3] [%] | change in vivo at 6.2 mg/kg [4] [%] | change in vivo at 1.2 mg/kg [5] [%] | change in vivo at 1.2 mg/kg [6] [%] | change in vivo at 1.2 mg/kg [7] [%] | change in vivo at 1.2 mg/kg [8] [%] | further results
17 | C=CCNC(=O)Nc1c(O)nc(C)c2cc(OC)c(OC)cc12 [BAO, 4-(N'-allylureido)-3-hydroxy-6,7-dimethoxy-1-methylisoquinoline] | – | – | – | – | 96 | -44 | -3 | 8 | –
18 | COc1cc2c(C)nc(O)c(NC(=O)NC3CCCCC3)c2cc1OC [BBE] | – | – | – | – | 24 | -16 | 2 | 3 | –
19 | CCOc1cc2c(NC(=O)Nc3ccc(SC)cc3)c(O)nc(C)c2cc1OC [BBA] | 2 | 23 | 53 | -17 | – | – | – | – | –
20 | COc1cc2c(C)nc(O)c(NC(=O)Nc3ccc(C(F)(F)F)cc3)c2cc1OC [BAD] | – | 4 | 49 | -29 | – | – | – | – | change in vivo at 6.2 mg/kg [9]: 10%
21 | COc1ccc(NC(=O)Nc2c(O)nc(C)c3cc(OC)c(OC)cc23)cc1OC [BBL] | – | – | – | – | 13 | -8 | -1 | 5 | –
22 | COc1ccc(NC(=O)Nc2c(O)nc(C)c3cc(OC)c(OC)cc23)c(OC)c1 [BAP] | – | – | – | – | 17 | -26 | -1 | -14 | –
23 | COc1cc2c(C)nc(O)c(NC(=O)Nc3cccc(Cl)c3)c2cc1OC [BAF] | 4 | – | 30 | -20 | – | – | – | – | –
24 | COc1cc2c(C)nc(O)c(NC(=O)Nc3ccc(C(=O)O)cc3)c2cc1OC [Compound BCA, 4-[N-(4-Carboxyphenyl)ureido]-3-hydroxy-6,7-dimethoxy-1-methylisoquinoline.5/2 Hydrate] | – | – | – | – | 40 | -28 | -12 | -1 | –
25 | COc1cc2c(C)nc(O)c(NC(=O)NCCc3ccccc3)c2cc1OC [BBM] | – | – | – | – | – | – | – | – | change in vivo at 0.2 mg/kg (relative to controls, read-out: HR, percent change in heart rate): -1%; change in vivo at 0.2 mg/kg (relative to controls, read-out: RBF, renal blood flow): 12%; change in vivo at 0.2 mg/kg (relative to controls, read-out: RVR, renal vascular resistance): -10%
26 | COc1cc2c(C)nc(O)c(NC(=O)Nc3cccc(C(F)(F)F)c3)c2cc1OC [BAG] | -10 | 2 | 23 | -16 | – | – | – | – | –
27 | COc1ccc(NC(=O)Nc2c(O)ncc3cc(OC)c(OC)cc23)cc1 [BBG] | – | – | – | – | 15 | -11 | – | 1 | change in vivo at 1.2 mg/kg [9]: 12%
28 | COc1cc2c(C)nc(O)c(NC(=O)Nc3ccc(N)cc3)c2cc1OC [BBZ] | – | – | – | – | 22 | -12 | 8 | 5 | –
29 | COc1cc2c(C)nc(O)c(NC(=O)NCCCl)c2cc1OC [BAY] | – | – | – | – | – | – | – | – | change in vivo at 6.2 mg/kg [9]: 27%; change in vivo at 6.2 mg/kg (iv, read-out: MABP, mean arterial blood pressure): 19%; change in vivo at 6.2 mg/kg (iv, read-out: RBF, renal blood flow): 85%; change in vivo at 6.2 mg/kg (iv, read-out: RVR, renal vascular resistance): -35%
30 | CCCCCCCCNC(=O)Nc1c(O)nc(C)c2cc(OC)c(OC)cc12 [BBF] | – | – | – | – | 19 | -24 | -14 | – | –
31 | COc1cccc(NC(=O)Nc2c(O)nc(C)c3cc(OC)c(OC)cc23)c1 [BAE] | -2 | – | 58 | -36 | – | – | – | – | –
